Consider 29 molecules from patent US9676701B2, “Cyclopropylamine derivatives useful as LSD1 inhibitors” (Oryzon Genomics, S.A., priority 2010, dated 2017).

In assay [1] the target is T1, MAO-A (Homo sapiens (Human), UniProt P21397). Conditions: read-out: MAO-A (Ki).
For assay [2], the target named is T2, MAO-B (Homo sapiens (Human), UniProt P27338). Conditions: read-out: MAO-B (Ki).
In assay [3] the target is T3, Human recombinant LSD1 protein (Homo sapiens (Human), UniProt O60341). Conditions: for Ki: read-out: LSD1 (Ki).
For assay [4], the target named is T1, MAO-A. As to the kind of experiment: biochemical.
Assay [5] has as its target T3, Human recombinant LSD1 protein. As to the kind of experiment: biochemical.
Assay [6] concerns the target T2, MAO-B. The assay can be described thus: biochemical.

Structures can show the parent of a compound that is named as a salt. Where two headings read alike, the source gives them in different places.

T2 sequence (P27338 whole entry): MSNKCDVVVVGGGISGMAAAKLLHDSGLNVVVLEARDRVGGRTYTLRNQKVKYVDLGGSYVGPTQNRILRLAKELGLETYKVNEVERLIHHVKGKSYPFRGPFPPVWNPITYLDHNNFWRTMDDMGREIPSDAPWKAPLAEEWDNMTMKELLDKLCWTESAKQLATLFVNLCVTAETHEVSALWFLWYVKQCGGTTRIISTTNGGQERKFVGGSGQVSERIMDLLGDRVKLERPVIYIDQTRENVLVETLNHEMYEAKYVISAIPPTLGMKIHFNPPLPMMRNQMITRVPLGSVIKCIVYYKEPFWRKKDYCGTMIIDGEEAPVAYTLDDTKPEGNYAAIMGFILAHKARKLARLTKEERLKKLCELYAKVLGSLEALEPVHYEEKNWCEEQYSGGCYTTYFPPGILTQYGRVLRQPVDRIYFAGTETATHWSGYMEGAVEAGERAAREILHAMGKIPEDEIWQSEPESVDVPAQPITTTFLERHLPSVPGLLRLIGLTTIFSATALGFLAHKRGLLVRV
T1 sequence (P21397 whole entry): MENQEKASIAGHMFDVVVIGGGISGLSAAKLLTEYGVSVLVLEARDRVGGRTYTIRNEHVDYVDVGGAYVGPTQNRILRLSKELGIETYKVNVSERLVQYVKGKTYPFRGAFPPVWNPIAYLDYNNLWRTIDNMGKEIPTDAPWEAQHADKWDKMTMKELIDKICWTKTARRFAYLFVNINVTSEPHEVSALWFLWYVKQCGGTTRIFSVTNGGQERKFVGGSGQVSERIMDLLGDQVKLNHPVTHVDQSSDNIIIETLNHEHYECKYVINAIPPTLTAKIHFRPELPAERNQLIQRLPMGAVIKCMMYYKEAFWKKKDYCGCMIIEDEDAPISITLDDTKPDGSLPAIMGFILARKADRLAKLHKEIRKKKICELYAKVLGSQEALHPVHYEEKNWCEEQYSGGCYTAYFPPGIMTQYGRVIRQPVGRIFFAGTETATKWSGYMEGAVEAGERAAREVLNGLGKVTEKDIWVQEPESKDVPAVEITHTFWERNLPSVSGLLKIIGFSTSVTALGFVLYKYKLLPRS

One may read the Ki as a dissociation constant, usually derived from enzyme kinetics or from competition with a known ligand. With `NC(=O)c1ccc(-c2nc(-c3cccc(C(F)(F)F)c3)ccc2[C@H]2C[C@@H]2N)cc1` (relative stereo) [Example 79, 4-(3-((trans)-2-aminocyclopropyl)-6-(3-(trifluoromethyl)phenyl)pyridin-2-yl)benzamide hydrochloride], the Ki in assay [1], in assay [2] and in assay [3] was 1000 to 40000 nM each time.
For `N#Cc1ccc(O)c(-c2ccc([C@H]3C[C@@H]3N)cc2)c1` (relative stereo) [Example 87, 4′-((trans)-2-aminocyclopropyl)-6-hydroxybiphenyl-3-carbonitrile hydrochloride], the Ki in assay [4] lay within 100 to 1000 nM.
For `N[C@H]1C[C@@H]1c1ccc(-c2cccc(O)c2)s1` (relative stereo) [Example 113, 3-(5-((trans)-2-aminocyclopropyl)thiophen-2-yl)phenol trihydrochloride], the Ki was 1 to 100 nM in assay [5], 100 to 1000 nM in assay [6] and 100 to 1000 nM in assay [4].
Take “Enantiomers of 4′-((trans)-2-aminocyclopropyl)biphenyl-3-ol hydrochloride [Example 63]”: the Ki fell in the range of 1000 to 40000 nM in assay [1], 1000 to 40000 nM in assay [2] and 1 to 100 nM in assay [3].
Turning to `Cc1cc([C@H]2C[C@@H]2N)cnc1-c1cccc(Cl)c1` (relative stereo) [Example 36, (trans)-2-(6-(3-chlorophenyl)-5-methylpyridin-3-yl)cyclopropanamine], the Ki in assay [1], in assay [2] and in assay [3] was 1000 to 40000 nM in each case.
Regarding `COc1cc(-c2cccc(O)c2)ccc1[C@H]1C[C@@H]1N` (relative stereo) [Example 106, 4′-((trans)-2-aminocyclopropyl)-3′-methoxy-[1,1′-biphenyl]-3-ol hydrochloride], the Ki in assay [5] is 100 to 1000 nM; in assay [4], 100 to 1000 nM; in assay [2], 1000 to 40000 nM.
As to `CS(=O)(=O)Nc1cc(Cl)cc(-c2ccc([C@H]3C[C@@H]3N)cc2)c1` (relative stereo) [Example 94, N-(4′-((trans)-2-aminocyclopropyl)-5-chloro-[1,1′-biphenyl]-3-yl)methanesulfonamide hydrochloride], the Ki in assay [5] lay in the range of 1 to 100 nM; in assay [6] it was 100 to 1000 nM; in assay [4], 100 to 1000 nM.
For the molecule `N[C@H]1C[C@@H]1c1ccc(-c2ccc3c(c2)[nH]c2ccccc23)nc1` (relative stereo) [Example 61, (Trans)-2-(6-(9H-carbazol-2-yl)pyridin-3-yl)cyclopropanamine hydrochloride], the Ki in assay [1], in assay [2] and in assay [3] was 1000 to 40000 nM in each case.
`CS(=O)(=O)Nc1cc(Cl)cc(-c2ccc([C@H]3C[C@@H]3N)cn2)c1` (relative stereo) [Example 95, N-(3-(5-((trans)-2-aminocyclopropyl)pyridin-2-yl)-5-chlorophenyl)methanesulfonamide hydrochloride]: the Ki in assay [4] lay in the range of 100 to 1000 nM.
`N[C@H]1C[C@@H]1c1ccc(-c2ccc(Cl)cc2)nc1` (relative stereo) [Example 7, (trans)-2-(6-(4-chlorophenyl)pyridin-3-yl)cyclopropanamine hydrochloride]: the Ki was in the range of 100 to 1000 nM in assay [5], 1000 to 40000 nM in assay [1] and 100 to 1000 nM in assay [6].
For `Cl.N[C@H]1C[C@@H]1c1ccc(-c2ccc3cn[nH]c3c2)nc1` (relative stereo) [Example 60, (Trans)-2-(6-(1H-indazol-6-yl)pyridin-3-yl)cyclopropanamine hydrochloride], the Ki in assay [1] and in assay [2] was 1000 to 40000 nM each time. Further, in assay [3], the “LSD1 (Ki)” value is reported as “II-III”.
`CNS(=O)(=O)c1cccc(-c2ccc([C@H]3C[C@@H]3N)cn2)c1` [Example 104, hydrochloride]: the results for the Ki in assay [4] and in assay [2] were 100 to 1000 nM and 1000 to 40000 nM, respectively.
Regarding `N[C@H]1C[C@@H]1c1ccc(-c2ccc(-c3ccccc3)cc2)cc1` [Example 2, (trans)-2-(terphenyl-4-yl)cyclopropanamine hydrochloride], the Ki in assay [5] and in assay [6] was 100 to 1000 nM throughout.
Take `NC(=O)c1ccc(-c2ccc([C@H]3C[C@@H]3N)cn2)cc1` (relative stereo) [Example 18, 4-(5-((trans)-2-aminocyclopropyl)pyridin-2-yl)benzamide hydrochloride]: the inhibition constant (Ki) in assay [1], in assay [2] and in assay [3] was 1000 to 40000 nM each time.
In the case of `N[C@H]1C[C@@H]1c1ccc(-c2ccc(C(F)(F)F)cc2)nc1` (relative stereo) [Example 9, (trans)-2-(6-(4-(trifluoromethyl)phenyl)pyridin-3-yl)cyclopropanamine hydrochloride], the Ki in assay [5] lay in the range of 100 to 1000 nM; in assay [1], 1000 to 40000 nM; in assay [6], 1 to 100 nM.
In the case of `CS(=O)(=O)Nc1cc(-c2ccc([C@H]3C[C@@H]3N)cc2)ccc1F` (relative stereo) [Example 96, N-(4′-((trans)-2-aminocyclopropyl)-4-fluoro-[1,1′-biphenyl]-3-yl)methanesulfonamide hydrochloride], the Ki in assay [5] fell in the range of 1 to 100 nM; in assay [4], 100 to 1000 nM; in assay [2], 1000 to 40000 nM.
`N#Cc1ccc(O)c(-c2ccc([C@H]3C[C@@H]3N)cn2)c1` (relative stereo) [Example 89, 3-(5-((trans)-2-aminocyclopropyl)pyridin-2-yl)-4-hydroxybenzonitrile hydrochloride] came in with a Ki in assay [4] of 100 to 1000 nM.
`N[C@H]1C[C@@H]1c1ccc(-c2cc(Cl)cc(Cl)c2)nc1` (relative stereo) [Example 6, (Trans)-2-(6-(3,5-dichlorophenyl)pyridin-3-yl)cyclopropanamine hydrochloride]: the figures for the Ki in assay [5], in assay [1] and in assay [6] were 100 to 1000 nM, 1000 to 40000 nM and 100 to 1000 nM, respectively.
`N#Cc1cccc(S(=O)(=O)Nc2cccc(-c3ccc([C@H]4C[C@@H]4N)cn3)c2)c1` (relative stereo) [Example 100, N-(3-(5-((trans)-2-aminocyclopropyl)pyridin-2-yl)phenyl)-3-cyanobenzenesulfonamide hydrochloride] returned a Ki in assay [4] of 100 to 1000 nM.
In the case of `COc1ccc(C#N)cc1-c1ccc([C@H]2C[C@@H]2N)cc1.Cl` (relative stereo) [Example 74, 4′-((trans)-2-aminocyclopropyl)-6-methoxybiphenyl-3-carbonitrile hydrochloride], the Ki in assay [1] and in assay [2] was 1000 to 40000 nM each time. The “LSD1 (Ki)” value in assay [3] is “II-III”.
Consider `Cc1cc([C@H]2C[C@@H]2N)cnc1-c1cccc(C(F)(F)F)c1` (relative stereo) [Example 37, (trans)-2-(5-methyl-6-(3-(trifluoromethyl)phenyl)pyridin-3-yl)cyclopropanamine hydrochloride], for which the Ki in assay [1], in assay [2] and in assay [3] was 1000 to 40000 nM in each case.
Regarding `N#Cc1cccc(-c2ccc([C@H]3C[C@@H]3N)cn2)c1` (relative stereo) [Example 13, 3-(5-((trans)-2-aminocyclopropyl)pyridin-2-yl)benzonitrile hydrochloride], the Ki was 1 to 100 nM in assay [5], 1000 to 40000 nM in assay [1] and 1000 to 40000 nM in assay [2].
With `N[C@H]1C[C@@H]1c1ccc(-c2cccc(C(F)(F)F)c2)nc1-c1ccc(O)cc1` (relative stereo) [Example 78, 4-(3-((trans)-2-aminocyclopropyl)-6-(3-(trifluoromethyl)phenyl)pyridin-2-yl)phenol hydrochloride], the Ki in assay [1], in assay [2] and in assay [3] was 1000 to 40000 nM each time.
In the case of `N#Cc1ccccc1S(=O)(=O)Nc1cccc(-c2ncc([C@H]3C[C@@H]3N)s2)c1` (relative stereo) [Example 124, N-(3-(5-((trans)-2-aminocyclopropyl)thiazol-2-yl)phenyl)-2-cyanobenzenesulfonamide dihydrochloride], the Ki lay within 1 to 100 nM in assay [5], 1000 to 40000 nM in assay [1] and 1000 to 40000 nM in assay [2].
`N[C@H]1C[C@@H]1c1cnc(-c2cccc(O)c2)s1` (relative stereo) [Example 116, 3-(5-((trans)-2-aminocyclopropyl)thiazol-2-yl)phenol hydrochloride]: the figures for the Ki in assay [5], in assay [4] and in assay [2] were 1 to 100 nM, 1 to 100 nM and 1000 to 40000 nM, respectively.
Take `CS(=O)(=O)Nc1ccccc1-c1ccc([C@H]2C[C@@H]2N)cc1.Cl` (relative stereo) [Example 73, N-(4′-((trans)-2-aminocyclopropyl)biphenyl-2-yl)methanesulfonamide hydrochloride]: the Ki in assay [1] and in assay [2] was 1000 to 40000 nM each time. Besides, in assay [3], the “LSD1 (Ki)” value is on record as “II-III”.
On to `N[C@H]1C[C@@H]1c1ccc(-c2cccc(C(F)(F)F)c2)nc1-c1ccc(Cl)cc1` (relative stereo) [Example 77, (trans)-2-(2-(4-chlorophenyl)-6-(3-(trifluoromethyl)phenyl)pyridin-3-yl)cyclopropanamine hydrochloride], for which the inhibitory constant (Ki) in assay [1], in assay [2] and in assay [3] was 1000 to 40000 nM each time.
As for `Cc1ccc(-c2ccc([C@H]3C[C@@H]3N)cn2)cc1O` (relative stereo) [Example 46, 5-(5-((trans)-2-aminocyclopropyl)pyridin-2-yl)-2-methylphenol hydrochloride], the Ki is 1 to 100 nM in assay [5], 1000 to 40000 nM in assay [1] and 1000 to 40000 nM in assay [2].
For the molecule `CS(=O)(=O)Nc1ccccc1-c1ccc([C@H]2C[C@@H]2N)cn1` (relative stereo) [Example 71, N-(2-(5-((trans)-2-aminocyclopropyl)pyridin-2-yl)phenyl)methanesulfonamide hydrochloride], the values for the Ki in assay [5], in assay [1] and in assay [2] were 100 to 1000 nM, 1000 to 40000 nM and 1000 to 40000 nM, respectively.
